Experimental data published in PubChem BioAssay (NCI).
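Briefly, cells in 96-well plates were exposed to five compound concentrations for 48 h, and endpoints were estimated by linear interpolation. GI50: concentration for 50% inhibition of growth. TGI marks complete inhibition of growth.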

Assays:
Experiment in all cases: growth of human tumour cells (NCI), 48 h; in the data active = GI50 below about 0.43 µM; inactive = the rest
[1] = tested on: 786-0 renal
[2] = tested on: A498 renal
[3] = tested on: A549 NSCLC
[4] = tested on: ACHN renal
[5] = tested on: BT-549 breast
[6] = tested on: CAKI-1 renal
[7] = tested on: CCRF-CEM leukemia
[8] = tested on: COLO 205 colon
[9] = tested on: DU-145 prostate
[10] = tested on: EKVX NSCLC
[11] = tested on: HCC-2998 colon
[12] = tested on: HCT-116 colon
[13] = tested on: HCT-15 colon
[14] = tested on: HL-60(TB) leukemia
[15] = tested on: HOP-62 NSCLC
[16] = tested on: HOP-92 NSCLC
[17] = tested on: HS 578T breast
[18] = tested on: HT29 colon
[19] = tested on: IGROV1 ovarian
[20] = tested on: K-562 leukemia
[21] = tested on: KM12 colon
[22] = tested on: LOX IMVI melanoma
[23] = tested on: M14 melanoma
[24] = tested on: MALME-3M melanoma
[25] = tested on: MDA-MB-231 breast
[26] = tested on: MDA-MB-435
[27] = tested on: NCI-H226 lung
[28] = tested on: NCI-H23 lung
[29] = tested on: NCI-H522 lung
[30] = tested on: NCI/ADR-RES ovarian
[31] = tested on: OVCAR-3 ovarian
[32] = tested on: OVCAR-4 ovarian
[33] = tested on: OVCAR-5 ovarian
[34] = tested on: OVCAR-8 ovarian
[35] = tested on: PC-3 prostate
[36] = tested on: RPMI-8226 leukemia
[37] = tested on: RXF 393 renal
[38] = tested on: SF-295 CNS
[39] = tested on: SF-539 CNS
[40] = tested on: SK-MEL-2 melanoma
[41] = tested on: SK-MEL-28 melanoma
[42] = tested on: SK-OV-3 ovarian
[43] = tested on: SN12C renal
[44] = tested on: SNB-75 CNS
[45] = tested on: SR leukemia
[46] = tested on: SW-620 colon
[47] = tested on: T-47D breast
[48] = tested on: TK-10 renal
[49] = tested on: U251 CNS
[50] = tested on: UACC-257 melanoma
[51] = tested on: UACC-62 melanoma
[52] = tested on: UO-31 renal

COc1cccc2c(Nc3ccc(C(=O)O)cc3)cc(-c3ccccc3)nc12
inactive: GI50 [1] > 100 µM | GI50 [2] > 100 µM | GI50 [3] > 100 µM | GI50 [4] > 100 µM | GI50 [5] > 100 µM | GI50 [6] > 100 µM | GI50 [7] > 100 µM | GI50 [8] > 100 µM | GI50 [9] > 100 µM | GI50 [10] > 100 µM | GI50 [11] > 100 µM | GI50 [12] > 100 µM | GI50 [13] > 100 µM | GI50 [14] > 100 µM | GI50 [15] > 100 µM | GI50 [16] 39.4 µM | GI50 [17] > 100 µM | GI50 [18] > 100 µM | GI50 [19] > 100 µM | GI50 [20] > 100 µM | GI50 [21] > 100 µM | GI50 [22] > 100 µM | GI50 [23] > 100 µM | GI50 [24] > 100 µM | GI50 [25] > 100 µM | GI50 [26] > 100 µM | GI50 [27] > 100 µM | GI50 [28] > 100 µM | GI50 [29] > 100 µM | GI50 [30] > 100 µM | GI50 [31] > 100 µM | GI50 [32] > 100 µM | GI50 [33] > 100 µM | GI50 [34] > 100 µM | GI50 [35] > 100 µM | GI50 [36] > 100 µM | GI50 [37] > 100 µM | GI50 [38] > 100 µM | GI50 [39] > 100 µM | GI50 [40] > 100 µM | GI50 [41] > 100 µM | GI50 [42] > 100 µM | GI50 [43] > 100 µM | GI50 [44] 72.3 µM | GI50 [45] > 100 µM | GI50 [46] > 100 µM | GI50 [47] 84.5 µM | GI50 [48] > 100 µM | GI50 [49] > 100 µM | GI50 [50] > 100 µM | GI50 [51] > 100 µM | GI50 [52] > 100 µM
> 100 µM: TGI [1] | TGI [2] | TGI [3] | TGI [4] | TGI [5] | TGI [6] | TGI [7] | TGI [8] | TGI [9] | TGI [10] | TGI [11] | TGI [12] | TGI [13] | TGI [14] | TGI [15] | TGI [16] | TGI [17] | TGI [18] | TGI [19] | TGI [20] | TGI [21] | TGI [22] | TGI [23] | TGI [24] | TGI [25] | TGI [26] | TGI [27] | TGI [28] | TGI [29] | TGI [30] | TGI [31] | TGI [32] | TGI [33] | TGI [34] | TGI [35] | TGI [36] | TGI [37] | TGI [38] | TGI [39] | TGI [40] | TGI [41] | TGI [42] | TGI [43] | TGI [44] | TGI [45] | TGI [46] | TGI [47] | TGI [48] | TGI [49] | TGI [50] | TGI [51] | TGI [52]
